This is an account of results in patent US12673915B2, “Precursor compound of hexahydro-beta-acid component compound, feed composition and use thereof” (WISORIG TECHNOLOGIES PTE. LIMITED, priority 2020, dated 2026).

For series [1], the system named is Duroc×Landrace×Yorkshire cross-bred bacon-type piglets. The series can be described thus: Effect on the production performance of hogs (14-day feeding trial). The settings on record: 25 ppm in feed; for ADFI (average daily feed intake) / ADG (average daily weight gain) / FCR (feed conversion ratio): 14 days, piglets. The format is in vivo. The text has this:
480 67-day-old Duroc×Landrace×Yorkshire cross-bred bacon-type piglets with similar body weight, were randomly divided into 16 groups, with 3 replications per group, 10 piglets per replication and equal amounts of males and females. The pig pen and tools were sterilized before the trial. In the trial, the piglets were kept in separate regions in the same pig pen under the same feeding and management conditions, were given a free hand with the feed and the water, and were fed twice a day. The groups were known as control group (group 1) and test groups 2 to 16. The piglets of the control group were fed with basal formula feed only, while those of the test groups 2 to 16 were respectively fed with basal formula feed mixed with different additives, wherein the active ingredient of the additives was a hexahydro-β-acid compound or a prodrug of a hexahydro-β-acid compound provide herein, and the content thereof in the feed was 5 or 25 ppm as shown in Table 4.
The trial lasted for 14 days. During the trial, each test group was not fed with other antioxidants or growth enhancers. On the 14th day, each test group was fed with no feed but water for 12 hours, and the piglets of each replication as one unit were weighed to calculate the average daily feed intake (ADFI, g/d per piglet), the average daily weight gain (ADG, g/d per piglet), and the feed conversion ratio (FCR). Average daily feed intake=(Total weight of provided feed−Weight of residual feed)/(Days of the trial×Number of piglets in each replicate) Average daily weight gain=(final average body weight−initial average body weight)/Days of the trial Feed conversion ratio=average daily feed intake/average daily weight gain

Series [2] can be described thus: Long-term stability in feeds at room temperature (25° C.±2° C., RH 60%±10%; HPLC). Type of series: physicochemical. The settings on record: for stability / content in feeds at room temperature (in words): during the testing period. The text has this:
Feeds: ZUSF's premixed feed (A mixture of crushed Feed A and crushed Feed B at a weight ratio of 2:1, wherein Feed A was a 5.33% multi-premixed feed for piglets from ZUSF's Hao-Ru-Zhen-Jing, and B was a 2.67% multi-premixed feed for piglets from ZUSF's Hao-Ru-Zhen-Jing); creep feed for piglets from CP FEED; INSIGHTER's feed for broiler; 4% premixed feed from GUANGDONG CO-POWER.
Preparation of a sample of 1% premix of Ingredient: 1 g of an ingredient was respectively weighed out and evenly mixed with 99 g of corncob meal in a mixer to give a sample of 1% premix of an ingredient.
Preparation of a sample of 500 ppm feed of an ingredient: The sample of 1% premix of an ingredient was diluted step by step using the ZUSF's remixed feed to 5000 ppm and 500 ppm to give the sample of 500 ppm feed of an ingredient for later testing.
Preparation of a sample of 100 ppm feed of an ingredient: sample of 1% premix of an ingredient was diluted step by step using the creep feed for piglets from CP FEED to 1000 ppm and then 100 ppm to give the sample of 100 ppm feed of an ingredient for later testing.
Preparation of a sample of 100 ppm feed of an ingredient: The sample of 1% premix of an ingredient was diluted step by step using the INSIGHTER's feed for broiler to 1000 ppm and 100 ppm to give the sample of 100 ppm feed of an ingredient for later testing.
Preparation of a sample of 2000 ppm feed of an ingredient: The sample of 1% premix of an ingredient was diluted step by step using the 4% premixed feed from GUANGDONG CO-POWER to 5000 ppm and 2000 ppm to give the sample of 2000 ppm feed of an ingredient for later testing.
Method: Three replications of each feed sample were tested at the condition of 25° C.±2° C. and RH 60%±10%, wherein the replications of each feed sample were sampled in parallel for HPLC analysis on day 5, day 10, day 15, day 30, day 60, and day 90.
25.0 mg of an ingredient was accurately weighed out and dissolved in an appropriate amount of methanol or n-hexane by ultrasonication. The solution was then transferred to a volumetric flask and diluted to 50 mL to give a 500 ppm (by wt.) stock solution. The samples from the stock solution were diluted with methanol or n-hexane respectively to a concentration of 10 ppm, 25 ppm, 50 ppm, 100 ppm, and 250 ppm of work solution, and then the working solutions were filtered by 0.22 μm organic membranes. Between the concentration of a sample and the response value of HPLC peak area thereof, the linearity was adjusted and detected to give a standard curve.
5.0000 g of the samples sampled at different time intervals were respectively accurately weighed out, and dissolved in 25 mL of methanol or n-hexane by ultrasonication for 10 minutes. The resulting solutions were filtered by organic membranes and then analyzed by HPLC.
• Equipment: Waters e2695 with PDA detector. • Mobile phase: 0.02% phosphoric acid:methanol=5:95 (v:v). • Column: Symmetry Cis column (Waters; 250 mm×4.6 mm, 5 μm). • Wavelength: 235 nm. • Temperature of the Column: 25° C. • Injection volume: 10 μL. • Flow rate: 1 mL/min. Normal Phase Chromatography: • Equipment: Shimadzu LC-14C/SPD-15C. • Column: SuperSil NH2 column ([…]; 250 mm×4.6 mm). • Mobile phase: n-hexane:isopropanol=60:40 (v:v). • Wavelength: 235 nm. • Temperature of the Column: 25° C. • Injection volume: 20 μL. • Flow rate: 1 mL/min. 3: Results

[3] abbreviates: 100 ppm in INSIGHTER's broiler feed, Day 5.
Where [4] appears, read: 100 ppm in INSIGHTER's broiler feed, Day 15.
[5] abbreviates: 100 ppm in INSIGHTER's broiler feed, Day 30.
[6] abbreviates: 100 ppm in INSIGHTER's broiler feed, Day 60.
The mark [7] stands for this setting: 100 ppm in INSIGHTER's broiler feed, Day 90.
[8] abbreviates: 100 ppm in creep feed for piglets from CP FEED, Day 5.
[9] abbreviates: 100 ppm in creep feed for piglets from CP FEED, Day 15.
Setting [10] is: 100 ppm in creep feed for piglets from CP FEED, Day 30.
Setting [11] is: 100 ppm in creep feed for piglets from CP FEED, Day 60.
[12] abbreviates: 100 ppm in creep feed for piglets from CP FEED, Day 90.
Setting [13] is: 500 ppm in ZUSF's premixed feed, Day 15.
The mark [14] stands for this setting: 500 ppm in ZUSF's premixed feed, Day 30.
Where [15] appears, read: 500 ppm in ZUSF's premixed feed, Day 60.
Where [16] appears, read: 500 ppm in ZUSF's premixed feed, Day 90.

Consider `CCCC(=O)OC1=C(CCC(C)C)C(=O)C(CCC(C)C)(CCC(C)C)C(O)=C1C(=O)C(C)CC` (centres unmarked) [Hexahydro-adlupulone mono-butyrate, hexahydro-adlupulone mono-butyrate], for which, in series [1], the “ADFI (average daily feed intake)” value was found to be 883 g/d per piglet, the “ADG (average daily weight gain)” value is 398 g/d per piglet and the “FCR (feed conversion ratio)” value was found to be 2.221.
Take `CCC(=O)OC1=C(CCC(C)C)C(=O)C(CCC(C)C)(CCC(C)C)C(O)=C1C(=O)C(C)CC` (centres unmarked) [Hexahydro-adlupulone mono-propionate, hexahydro-adlupulone mono-propionate]: in series [1], the “ADFI (average daily feed intake)” value was 876 g/d per piglet, the “ADG (average daily weight gain)” value is 393 g/d per piglet and the “FCR (feed conversion ratio)” value amounted to 2.228.
The corresponding values for `CCC(C)C(=O)C1=C(O)C(CCC(C)C)(CCC(C)C)C(=O)C(CCC(C)C)=C1O` (centres unmarked) [Hexahydro-adlupulone, reference compound] are 860 g/d per piglet, 384 g/d per piglet and 2.240.
As for `CCCC(=O)OC1=C(CCC(C)C)C(=O)C(CCC(C)C)(CCC(C)C)C(OC(=O)CCC)=C1C(=O)C(C)C` [Hexahydro-colupulone di-butyrate, hexahydro-colupulone di-butyrate], in series [1], the “ADFI (average daily feed intake)” value was found to be 950 g/d per piglet, the “ADG (average daily weight gain)” value is listed as 413 g/d per piglet and the “FCR (feed conversion ratio)” value came out at 2.298.
With `CCC(=O)OC1=C(CCC(C)C)C(=O)C(CCC(C)C)(CCC(C)C)C(OC(=O)CC)=C1C(=O)C(C)C` [Hexahydro-colupulone di-propionate, hexahydro-colupulone di-propionate], in series [1], the “ADFI (average daily feed intake)” value was 926 g/d per piglet, the “ADG (average daily weight gain)” value was 415 g/d per piglet and the “FCR (feed conversion ratio)” value amounted to 2.231.
Take `CCCCCCCCCCCC(=O)OC1=C(CCC(C)C)C(=O)C(CCC(C)C)(CCC(C)C)C(O)=C1C(=O)C(C)C` [hexahydro-colupulone mono-laurate]: the “Residual amount of active ingredient” value in series [2] (setting [3]) is reported as 99.63%; in series [2] (setting [4]), 99.65%; in series [2] (setting [5]), 99.68%; in series [2] (setting [6]), 98.68%; in series [2] (setting [7]) it was 98.47%; in series [2] (1000 ppm in INSIGHTER's broiler feed, Day 5) it was 101.19%. Moreover, the “Residual amount of active ingredient” value in series [2] (1000 ppm in INSIGHTER's broiler feed, Day 15) was 101.72%; in series [2] (1000 ppm in INSIGHTER's broiler feed, Day 30), 98.60%; in series [2] (1000 ppm in INSIGHTER's broiler feed, Day 60) it was 97.85%; in series [2] (1000 ppm in INSIGHTER's broiler feed, Day 90) it was 95.26%. The “effects on the performance of piglets compared with mono-acetate and mono-butyrate (in words)” value in series [1] is “not as significant”. Moreover, the “ADFI (average daily feed intake)” value in series [1] is 918 g/d per piglet. For the same molecule, the “ADG (average daily weight gain)” value in series [1] is 383 g/d per piglet. In series [1], the “FCR (feed conversion ratio)” value is on record as 2.399.
“disodium salt of hexahydro-colupulone mono-phosphate [reference compound]”: the “Residual amount of active ingredient” value in series [2] (setting [3]) was found to be 86.64%; in series [2] (setting [4]) it was 83.77%; in series [2] (setting [5]), 81.32%; in series [2] (setting [6]) it was 76.53%; in series [2] (setting [7]), 62.97%; in series [2] (setting [8]), 66.59%. Moreover, the “Residual amount of active ingredient” value in series [2] (setting [9]) is given as 58.39%; in series [2] (setting [10]), 55.80%; in series [2] (setting [11]), 47.76%; in series [2] (setting [12]), 44.33%.
For the molecule hexahydro-colupulone mono-hexanoate, the “Residual amount of active ingredient” value turned out to be 98.90% in series [2] (setting [3]); 97.72% in series [2] (setting [4]); 96.58% in series [2] (setting [5]); 95.77% in series [2] (setting [6]); 102.18% in series [2] (setting [8]); 96.14% in series [2] (setting [9]). Moreover, the “Residual amount of active ingredient” value in series [2] (setting [10]) is 95.30%; in series [2] (setting [11]) it was 95.20%; in series [2] (setting [12]), 95.55%; in series [2] (setting [13]) it was 87.50%; in series [2] (setting [14]) it was 89.00%; in series [2] (setting [15]), 86.07%. Also, in series [2] (setting [16]), the “Residual amount of active ingredient” value was 83.77%. Also, in series [2], the “stability / content in feeds at room temperature (in words)” value is given as “relatively poor in some of the feeds”. In addition, the “effects on the performance of piglets compared with mono-acetate and mono-butyrate (in words)” value in series [1] is listed as “not as significant”. The “ADFI (average daily feed intake)” value in series [1] turned out to be 913 g/d per piglet. In addition, the “ADG (average daily weight gain)” value in series [1] is given as 383 g/d per piglet. The “FCR (feed conversion ratio)” value in series [1] worked out at 2.386.
For the molecule hexahydro-colupulone mono-pentanoate, the “Residual amount of active ingredient” value in series [2] (setting [3]) worked out at 98.84%; in series [2] (setting [4]), 98.12%; in series [2] (setting [5]), 97.73%; in series [2] (setting [6]), 96.64%; in series [2] (setting [8]), 100.94%; in series [2] (setting [9]), 98.82%. The “Residual amount of active ingredient” value in series [2] (setting [10]) worked out at 96.92%; in series [2] (setting [11]), 96.01%; in series [2] (setting [12]), 95.61%; in series [2] (setting [13]), 94.29%; in series [2] (setting [14]), 94.80%; in series [2] (setting [15]), 88.17%. For the same molecule, the “Residual amount of active ingredient” value in series [2] (setting [16]) was 89.14%. Also, the “stability / content in feeds at room temperature (in words)” value in series [2] is “relatively poor in some of the feeds”.
